Data published in patent publication US20250134897A1, “PREPARATION OF IS[…] KETO[…] METHODS OF HYPERPO[…] SIGNAL AMP[…] […] (SABRE)” (The United States of America,as represented by the …, priority 2022, published 2025).

Tests used:
[1] = 13C-1 spin-lattice relaxation time (T1) at 3 T MRI system; type: physicochemical; conditions: 3 T MRsolution MRI system, solutions of DPBS with EDTA
[2] = SABRE-SHEATH 13C hyperpolarization, single-scan 13C NMR; type: physicochemical; conditions: 10 mM substrate, 45 mM DMSO, 7.8 mM Ir-IMes catalyst in methanol-d4; 55 s p-H2 bubbling at BT=−0.2 μT; ~50% p-H2; acquired after transfer to 1 T
Description: Ultra-high-purity hydrogen gas (Airgas) was fed into a Para-Hydrogen (pH2) flow cryostat (Xeus technology LTD) and enriched to about 50% parahydrogen in the presence of a spin-exchange catalyst (Fe2O3) at liquid nitrogen temperature (77 K). The pH2 flow was directed via PTFE tubing to a mass flow controller (MFC, Sierra Instruments SmartTrak 100 series) set at 90 ssc/m and directed to a conventional 5 mm NMR tube (Norell) to allow bubbling through the sample. The entire pH2 line was pressurized to 96 psi.
At least once a day, the shield was degaussed using internal coils driven by a Variac. The solenoid has 41 mm diameter (40 mm core, 20 cm long windings with 220 turns AWG20 (0.9 mm) Cu wire and with 220Ω resistor in series. The solenoid coil was driven by commercial 1.5V batteries with a variable-resistance decade box in series to provide finer control of the internal magnetic field inside the shield. Typical values of the field within the shield were between […], with SABRE SHEATH experiments typically between 0.5 μT and 0.8 μT in the sample region. The values were monitored between SABRE experiments using a Lakeshore Cryotronics Gaussmeter (Model No. 475 DSP with HMMA-2512-VR Hall Probe.
NMR experiments were performed using a 1 T Magritek Spinsolve benchtop NMR spectrometer. […]

| Structure (SMILES) | T1 after flip angle correction (spin-lattice relaxation time) [1] | apparent T1 (spin-lattice relaxation time) ([1]; without flip angle correction) | polarization P(13C) [2] |
| --- | --- | --- | --- |
| O=C(O)CCC(=O)C(=O)O [2-Oxopentanedioic-5-^12C-1-^13C acid] | 63.0 ± 0.835 s | 32.1 ± 0.824 s | – |
| O=C(CC[12C](=O)[O-])[13C](=O)[O-].[Na+].[Na+] [sodium [1-^13C] Ketoglutarate, sodium 2-Oxopentanedioate-5-^12C-1-^13C] | – | – | ~0.24% |
